Reference: PMC9481570, “A small molecule antagonist of SMN disrupts the interaction between SMN and RNAP II” (Nature Communications, 2022)
Where “and” joins values, the source holds several entries; their conditions need not be identical. Equal entries are not always repeated.

Molecular target: T1, SMN (Homo sapiens, UniProt Q16637)
T1 construct: endogenous in cells; host or cells: U2OS
Assay: AP-MS chemical proteomics, SMN
Assay type: binding
Description: The samples for AP-MS were prepared following pulldown procedure as previously described with minor modifications. Briefly, U2OS cells were lysed in RIPA buffer and the cell lysate was equally divided into two groups: (1) DMSO group (control group): the cell lysate was incubated with 20 μM biotin-labeled compound 1; (2) Cpmd 1 group (sample group): the cell lysate was incubated with 20 μM biotin-labeled compound 1 and 200 μM free compound 1. Each group contains three biological replicates. They were incubated overnight at 4 °C, then 30 μL streptavidin beads (Thermo Fisher, 20353) was added and incubated at 4 °C for 1 h. The beads were then washed with RIPA buffer for 3 times, 10 min/time.
Beads were rinsed twice with 50 mM TEAB, pH 7.55, before eluting proteins with 25 μL of 5% SDS, 50 mM TEAB, pH 7.55. The sample was then centrifuged at 17,000 × g for 10 min to remove any debris. Proteins were reduced with 20 mM TCEP (Thermo Fisher, 77720) and incubated at 65 °C for 30 min. […]
Samples were analyzed by nanoLC-MS/MS (nanoRSLC, Thermo Fisher) using an Aurora series (Ion Opticks) reversed phase HPLC column (25 cm length × 75 µm inner diameter) and directly injected to an Orbitrap Eclipse (Thermo Fisher) using a 120 min gradient (mobile phase A = 0.1% formic acid, mobile phase B = 99.9% acetonitrile with 0.1% formic acid; hold 2% B for 5 min, 2–6% B in 0.1 min, 6–25% in 100 min, 25–50% in 15 min) at a flow rate of 350 nL/min. Eluted peptide ions were analyzed using a data-dependent acquisition (DDA) method with resolution settings of 120,000 and 15,000 (at m/z 200) for MS1 and MS2 scans, respectively. […]
The data of AP-MS were analyzed as a previously described method with minor modifications. […] Relative protein quantification was based on the label-free quantification incorporated in the MaxQuant software. […] The missing iBAQ intensity was replaced by a random number, which was calculated from a normal distribution with a width of 0.3 and a downshift of 1.8 defined by Perseus software (version 1.6.5.0). The P-value was calculated by performing two-sample Student’s t-test. […]

T1 sequence (Q16637 whole entry): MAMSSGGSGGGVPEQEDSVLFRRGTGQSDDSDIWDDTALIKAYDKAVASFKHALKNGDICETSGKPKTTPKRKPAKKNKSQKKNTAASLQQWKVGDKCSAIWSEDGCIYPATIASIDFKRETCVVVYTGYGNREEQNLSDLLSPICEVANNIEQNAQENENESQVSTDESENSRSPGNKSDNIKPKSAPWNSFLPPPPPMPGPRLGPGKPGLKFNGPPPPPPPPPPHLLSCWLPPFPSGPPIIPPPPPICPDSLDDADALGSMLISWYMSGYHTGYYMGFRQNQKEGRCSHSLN

## Cn1c2c(c(=N)c3c1CCC3)CCC2 [Compound 1, 4-methyl-2,3,4,5,6,7-hexahydrodicyclopenta[b,e]pyridin-8(1H)-imine]
GN=SMN1/SMN2 (Q16637), Cmpd minus DMSO, -LOG(P-value) 4.49648
  Difference: -8.914
GN=SMN1/SMN2 (Q16637), replicates 1-3
  iBAQ Cmpd: 15.271 and 13.8686 and 14.4098
biotin-Cmpd 1 pulldown, competition with 200 μM compound 1 relative to DMSO, U2OS lysate
  log2 FC (Cmpd 1/DMSO), SMN: −8.9
